Some results are limits rather than exact numbers.

The subject of this experiment is PBMC (T cell proliferation). Description: T cell proliferation assay, PHA-stimulated human PBMC (BrdU ELISA). The following applies: human PBMC, 2 μg/ml PHA, 48 hours, BrdU; read-out: D: IC50 (Tcell proliferation). The format is cell-based. In outline: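 BrdU ELISA readout of proliferation at 48 hours. Cells: human PBMC from healthy donors in 10% dialyzed FCS/RPMI1640, 1×10^5 per well, activated by 2 μg/ml phytohaemagglutinin in the presence of compound.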
Regarding `COC(=O)c1c(-c2c(Cl)cccc2Cl)noc1-c1cnn(-c2cccc(F)c2)c1C(F)(F)F` [Example 109, methyl 3-(2,6-dichlorophenyl)-5-(1-(3-fluorophenyl)-5-(trifluoromethyl)-1H-pyrazol-4-yl)isoxazole-4-carboxylate], the IC50 was less than 10 nM. `CNC(=O)c1c(-c2c(Cl)cccc2Cl)noc1-c1cnn(-c2cccc(F)c2)c1C(F)(F)F` [Example 110, 3-(2,6-dichlorophenyl)-5-(1-(3-fluorophenyl)-5-(trifluoromethyl)-1H-pyrazol-4-yl)-N-methylisoxazole-4-carboxamide]: the IC50 is 10 to 100 nM. As to `COC(=O)c1c(-c2ccc(Cl)cc2Cl)noc1-c1cnn(-c2cccc(F)c2)c1C(F)(F)F` [Example 111, methyl 3-(2,4-dichlorophenyl)-5-(1-(3-fluorophenyl)-5-(trifluoromethyl)-1H-pyrazol-4-y)isoxazole-4-carboxylate], the IC50 fell in the range of 100 to 1000 nM. Regarding `CCOC(=O)c1c(-c2ccc(Cl)cc2Cl)noc1-c1cnn(-c2cccc(F)c2)c1C(F)(F)F` [Example 112, ethyl 3-(2,4-dichlorophenyl)-5-(1-(3-fluorophenyl)-5-(trifluoromethyl)-1H-pyrazol-4-yl)isoxazole-4-carboxylate], the IC50 fell in the range of 100 to 1000 nM. Next, `COC(=O)c1c(-c2c(F)cccc2Cl)noc1-c1cnn(-c2cccc(Cl)c2)c1` [Example 115, methyl 3-(2-chloro-6-fluorophenyl)-5-(1-(3-chlorophenyl)-1H-pyrazol-4-yl)isoxazole-4-carboxylate]: 1000 to 10000 nM; `CCOc1cc(-n2ncc(-c3onc(-c4c(F)cccc4Cl)c3C(=O)OC)c2C(F)(F)F)ncn1` [Example 116, methyl 3-(2-chloro-6-fluorophenyl)-5-(1-(6-ethoxypyrimidin-4-yl)-5-(trifluoromethyl)-1H-pyrazol-4-yl)isoxazole-4-carboxylate]: 1000 to 10000 nM. Turning to `Nc1c(-c2c(F)cccc2Cl)noc1-c1cnn(-c2cccc(F)c2)c1C(F)(F)F` [Example 117, 3-(2-chloro-6-fluorophenyl)-5-(1-(3-fluorophenyl)-5-(trifluoromethyl)-1H-pyrazol-4-yl)isoxazol-4-amine], the IC50 was in the range of 100 to 1000 nM. With `O=C(c1c(-c2c(F)cccc2Cl)noc1-c1cnn(-c2cccc(F)c2)c1C(F)(F)F)N1CCCO1` [Example 118, (3-(2-chloro-6-fluorophenyl)-5-(1-(3-fluorophenyl)-5-(trifluoromethyl)-1H-pyrazol-4-yl)isoxazol-4-yl)(isoxazolidin-2-yl)methanone] the figure was 10 to 100 nM; with `COC(=O)c1c(-c2c(F)cccc2Cl)noc1-c1cnn(-c2cc(C)nc(C)n2)c1C(F)(F)F` [Example 119, methyl 3-(2-chloro-6-fluorophenyl)-5-(1-(2,6-dimethylpyrimidin-4-yl)-5-(trifluoromethyl)-1H-pyrazol-4-yl)isoxazole-4-carboxylate], 100 to 1000 nM; with `N#Cc1c(-c2c(F)cccc2Cl)noc1-c1cnn(-c2cccc(F)c2)c1C(F)(F)F` [Example 120, 3-(2-chloro-6-fluorophenyl)-5-(1-(3-fluorophenyl)-5-(trifluoromethyl)-1H-pyrazol-4-yl)isoxazole-4-carbonitrile], 100 to 1000 nM. With `NC(=O)c1c(-c2c(F)cccc2Cl)noc1-c1cnn(-c2cccc(Cl)c2)c1C(F)(F)F` [Example 121, 3-(2-chloro-6-fluorophenyl)-5-(1-(3-chlorophenyl)-5-(trifluoromethyl)-1H-pyrazol-4-yl)isoxazole-4-carboxamide] the figure was 1000 to 10000 nM; with `CNC(=S)c1c(-c2c(F)cccc2Cl)noc1-c1cnn(-c2cccc(F)c2)c1C(F)(F)F` [Example 122, 3-(2-chloro-6-fluorophenyl)-5-(1-(3-fluorophenyl)-5-(trifluoromethyl)-1H-pyrazol-4-yl)-N-methylisoxazole-4-carbothioamide], 100 to 1000 nM.

Source of the values: patent publication US8592456B2 (4SC Discovery GmbH, priority 2011, dated 2013).
